Laboratory results: ChEMBL document CHEMBL1150927, “Antineoplastic agents. 398. Isolation and structure elucidation of cephalostatins 18 and 19” (1998)
≈ marks a conversion by molar mass, not a printed value.

Experiments:
Format in all cases: functional
[1] = Growth inhibition of human NCI60 cells
KM-20L2 = assay: Growth inhibition of human KM20L2 cells
NCI-H460 = assay: Growth inhibition of human NCI-H460 cells
SK-MEL-5 = assay: Growth inhibition of human SK-MEL-5 cells
A498 = assay: Growth inhibition of human A498 cells
SF-295 = assay: Growth inhibition of human SF295 cells
P388 = assay: Cytotoxicity against mouse P388 cells; details: read-out: ED50 (the source's name)
OVCAR-3 = assay: Growth inhibition of human OVCAR-3 cells

GI50 (NCI-H460) [ng/mL]	GI50 (SK-MEL-5) [ng/mL]	GI50 (OVCAR-3) [ng/mL]	SMILES	GI50 [1] [nM]	GI50 (KM-20L2) [ng/mL]	GI50 (A498) [ng/mL]	GI50 (SF-295) [ng/mL]	EC50 (P388) [ng/mL]
			C[C@@H]1[C@]2(O[C@H]3C=C4[C@@H]5CC[C@H]6Cc7nc8c(nc7C[C@]6(C)[C@H]5C[C@@H](O)[C@]4(C)[C@]31O)C[C@@H]1CC[C@H]3C4=CC[C@@H]5[C@H](C)[C@@]6(OC[C@]45C(=O)C[C@@H]3[C@@]1(C)C8)OC(C)(C)C[C@H]6O)O[C@](C)(CO)C[C@H]2O [CEPHALOSTATIN 1]	2.2				
< 1	< 1	< 1	CO[C@H]1c2nc3c(nc2C[C@@H]2CC[C@H]4C5=C[C@@H]6O[C@]7(O[C@](C)(CO)C[C@H]7O)[C@@H](C)[C@]6(O)[C@@]5(C)[C@H](O)C[C@@H]4[C@]21C)C[C@@]1(C)[C@@H](CC[C@H]2C4=CC[C@@H]5[C@H](C)[C@@]6(OC[C@]45C(=O)C[C@@H]21)OC(C)(C)C[C@H]6O)C3 [CEPHALOSTATIN 18]	21.7	< 1	< 1	< 1	4.3 (≈ 4.57 nM)
< 1	< 1	< 1	CO[C@H]1c2nc3c(nc2C[C@@H]2CC[C@H]4C5=CC[C@@H]6[C@H](C)[C@@]7(OC[C@]56C(=O)C[C@@H]4[C@]21C)OC(C)(C)C[C@H]7O)C[C@@]1(C)[C@@H](CC[C@H]2C4=C[C@@H]5O[C@]6(O[C@](C)(CO)C[C@H]6O)[C@@H](C)[C@]5(O)[C@@]4(C)[C@H](O)C[C@@H]21)C3 [CEPHALOSTATIN 19]	16.6	< 1	< 1	< 1	7.4 (≈ 7.86 nM)
